For the assay, the target named is T1, ecdysteroid receptor complex in Drosophila Kc cell cytosolic extract (Drosophila melanogaster, UniProt P34021).
T1 construct: The supernatant, containing the cytosolic protein extract; endogenous in cells; host or cells: Drosophila Kc167 cells, cytosolic extract
T1 sequence (P34021 1-878): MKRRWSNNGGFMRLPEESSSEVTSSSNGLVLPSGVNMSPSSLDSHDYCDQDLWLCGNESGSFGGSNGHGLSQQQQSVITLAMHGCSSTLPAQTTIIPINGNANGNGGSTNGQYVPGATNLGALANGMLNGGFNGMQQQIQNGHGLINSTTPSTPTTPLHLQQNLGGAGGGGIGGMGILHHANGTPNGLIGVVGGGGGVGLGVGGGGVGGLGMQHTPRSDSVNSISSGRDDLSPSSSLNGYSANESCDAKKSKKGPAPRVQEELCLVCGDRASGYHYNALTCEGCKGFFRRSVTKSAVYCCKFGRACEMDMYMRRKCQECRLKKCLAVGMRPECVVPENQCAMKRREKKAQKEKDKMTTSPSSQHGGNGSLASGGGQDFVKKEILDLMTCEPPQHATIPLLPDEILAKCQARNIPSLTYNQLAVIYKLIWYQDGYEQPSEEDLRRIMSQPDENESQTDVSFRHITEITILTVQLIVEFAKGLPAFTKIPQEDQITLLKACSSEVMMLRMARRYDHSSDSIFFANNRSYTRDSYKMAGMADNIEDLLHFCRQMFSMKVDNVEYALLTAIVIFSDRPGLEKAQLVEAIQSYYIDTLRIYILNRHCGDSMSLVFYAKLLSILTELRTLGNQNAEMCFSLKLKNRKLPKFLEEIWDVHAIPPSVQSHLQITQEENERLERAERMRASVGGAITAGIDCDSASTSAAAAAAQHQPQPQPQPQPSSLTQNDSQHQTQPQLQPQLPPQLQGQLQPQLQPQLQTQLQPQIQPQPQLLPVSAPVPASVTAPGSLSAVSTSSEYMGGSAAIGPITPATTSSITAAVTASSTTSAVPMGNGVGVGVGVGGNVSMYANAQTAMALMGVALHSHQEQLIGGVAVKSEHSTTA
T1 sequence (P20153 1-508 partner): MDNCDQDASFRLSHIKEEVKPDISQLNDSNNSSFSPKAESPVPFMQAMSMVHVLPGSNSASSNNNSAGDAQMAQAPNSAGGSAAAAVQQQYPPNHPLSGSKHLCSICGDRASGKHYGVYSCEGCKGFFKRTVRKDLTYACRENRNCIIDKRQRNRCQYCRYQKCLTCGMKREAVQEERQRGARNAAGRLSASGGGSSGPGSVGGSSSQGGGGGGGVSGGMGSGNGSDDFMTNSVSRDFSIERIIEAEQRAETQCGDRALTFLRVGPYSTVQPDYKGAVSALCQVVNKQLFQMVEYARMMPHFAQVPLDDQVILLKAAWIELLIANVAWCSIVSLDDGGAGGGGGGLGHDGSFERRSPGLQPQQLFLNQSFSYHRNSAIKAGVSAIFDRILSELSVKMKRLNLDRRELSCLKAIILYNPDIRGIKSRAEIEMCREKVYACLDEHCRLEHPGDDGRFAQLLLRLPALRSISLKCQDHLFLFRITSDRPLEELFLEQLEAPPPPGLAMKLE
As to the kind of experiment: Competitive 3H-ponasterone A binding assay, Kc cytosolic ecdysone receptor extract. The settings on record: for Kc log(1/EC50) / EC50: Kc cells/extract; for Kd: read-out: Kd for Kc cells; for EC50: read-out: Kc log(1/EC50) (converted). The protocol: The dipteran cell line Kc167, originally derived from Drosophila embryos (see Echalier, G. and Ohanessian, A. (1969) C. R. Acad. Sci., 268, 1771) was obtained from Dr. Peter Cherbas (Indiana University) and maintained as described (Cherbas, L., et. al., (1994), Methods in Cell Biology, 44, 161-179). A 400 ml culture of Kc Cells (3×10^7 cells per ml) was centrifuged at 700×g for 10 minutes at room temperature to pellet the cells. The supernatant was aspirated and the pellet was resuspended in 70 ml of cold TM buffer (10 mM Tris, 5 mM MgCl2, 1 mM DTT, pH 7.2). After a 10 minute incubation on ice, the cells were centrifuged at 2,300×g. The supernatant was discarded. The cell pellet was frozen at −20° C. for 1 hour. The frozen cell pellet was thawed slowly on ice and homogenized in a cold Potter-Elvehjem homogenizer using a teflon pestle on a Caframo homogenizer motor, at setting 500 with 10 up and down strokes at 4° C. This slurry was centrifuged at 100,000×g in a swinging bucket rotor for 60 minutes. The supernatant, containing the cytosolic protein extract was diluted with T buffer (10 mM Tris, 1 mM DTT, pH 7.2) to a protein concentration of 5 mg/ml. This extract was used immediately for ligand binding assays.
^3H ponasterone A, a potent phytoecdysteroid, (66,000 dpm; specific activity 170 Ci/mmole; NEN Life Science Products, Boston, Mass.) was mixed with 100 μl Kc cytosolic or Plodia nuclear ecdysone receptor extracts in […] glass test tubes in the absence or presence of 10 μM unlabelled 20-hydroxyecdysone (20E) to obtain an estimate of total or non-specific respectively, binding of tritiated ponasterone A. The tubes were vortexed and incubated overnight at 4° C. for Kc cytosolic extracts or 1.5 hours for Plodia nuclear extracts for binding reactions to reach equilibrium. At the end of equilibrium binding times, the bound tritiated ponasterone A was separated from the unbound by addition of ice-cold 600 μl or 300 μl dextran-coated charcoal solution (500 mg of Sigma HCL-washed activated charcoal, 50 mg Pharmacia Dextran T70, 50 ml T-buffer) to Kc or Plodia extracts, respectively. The tubes were vortexed briefly and centrifuged at 7,000×g to pellet the charcoal. The supernatant, 600 μl or 300 μl for Kc or Plodia extract reactions, respectively, containing tritiated ponasterone A bound to proteins, was aspirated into liquid scintillation vials containing 5 ml scintillation cocktail (ReadySafe®, Beckmann) each The mixture was vortexed and the amount of total or non-specifically bound radioactivity measured in a Beckmann LS500 liquid scinitllation counter with a 60% counting efficiency for tritium.
The concentrations of competitors that inhibited 50% of tritiated ponasterone A binding (IC50) was determined by incubating Kc or Plodia nuclear extracts or extracts of bacteria producing CfEcR(CDEF)-GST and CfUSP-GST fusions proteins with ^3H-ponasterone A (66,000 dpm per reaction) in the presence of a range of concentrations (0.1 nM to 10 μM) of test compounds. In the case of binding reactions using bacterial fusion proteins, 20 or one μl extract of bacteria producing CfEcR(CDEF)-GST or CfUSP-GST fusion proteins, respectively, were included per binding reaction. The assay conditions and determination of total and non-specific binding was as described above. The volume of competitor in solvent, like that for 20E or solvent alone, was kept at 1% of total reaction volume by using a 100 fold concentrated stock solution (i.e. a 100 fold dilution of stock solutions). The remainder of the assay was as described above. Each reaction was carried out in duplicate per concentration per test compound. Specific binding of ^3H-ponasterone A was determined by subtracting non-specific binding (that obtained in the presence of 10 μM 20E) from total (no competitor) or competed radioactivity bound. The data for each test compound was analyzed using IGOR Pro software (WaveMetrics, Lake Oswego, Oreg.) to calculate IC50 value. […]

SMILES strings stand for the structures. Read-outs that look alike come from different tables or passages of the source.

As usually defined, the Kd is the free concentration of one partner at which half of the binding sites on the other are occupied at equilibrium, for simple one-to-one binding.

`CC(C)CC[C@@H](O)[C@](C)(O)[C@H]1CC[C@@]2(O)C3=CC(=O)[C@]4(O)C[C@@H](O)[C@@H](O)C[C@]4(C)[C@H]3[C@H](O)C[C@]12C` [CE-3, muristerone A, reference compound]: the “Kc log(1/EC50)” value is listed as 7.96. Besides, under “Table 2”, the Kd stood at 2.3 nM. The dissociation constant (Kd) (Table 3) came to 2 nM.
Consider `CCc1ccc(C(=O)NN(C(=O)c2cc(C)cc(C)c2)C(C)(C)C)cc1` [CE-1, N-(4-ethylbenzoyl)-N′-(3,5-dimethylbenzoyl)-N′-tert-butyl-hydrazine, reference compound], for which the EC50 was 282 nM. The Kd (Table 2) stood at 110 nM. Also, the Kd (Table 3) was determined as 192 nM.
`Cc1cc(C)cc(C(=O)N(NC(=O)c2ccc3c(c2C)OCCO3)C(C)(C)C)c1` [Ligand 2]: the “Kc log(1/EC50)” value is 7.16. For the same compound, the Kd (Table 2) is 60 nM. Besides, the Kd (Table 3) worked out at 47 nM.
The corresponding values for `COc1cccc(C(=O)NN(C(=O)c2cc(C)cc(C)c2)C(C)(C)C)c1C` [Ligand 3] are 6.74, 124 nM and 124 nM.
Take `CCc1c(OC)cccc1C(=O)NN(C(=O)c1cc(C)cc(C)c1)C(C)(C)C` [Ligand 5]: the “Kc log(1/EC50)” value worked out at 7.70. For the same compound, the Kd (Table 2) came to 13.3 nM. The Kd (Table 3) is 13 nM.
For `CCc1c(OC)cccc1C(=O)NN(C(=O)c1cc(Cl)cc(Cl)c1)C(C)(C)C` [Ligand 13] the same measures were 7.44, 65 nM and 24 nM.
As to `CCc1c(OC)cccc1C(=O)NN(C(=O)c1cc(F)cc(F)c1)C(C)(C)C` [Ligand 4], the “Kc log(1/EC50)” value turned out to be 7.41. Besides, where the note is “Table 2”, the Kd is 47 nM. Also, for the setting “Table 3”, the Kd stood at 26 nM.
Regarding `CC(C)(C)N(NC(=O)c1ccccc1)C(=O)c1ccccc1` [CE-2, 1,2-dibenzoyl-1-tert-butyl-hydrazine, reference compound], the EC50 is 3020 nM. Further, the Kd (Table 2) amounted to 2000 nM. In addition, the dissociation constant (Kd) (Table 3) worked out at 2000 nM.
As to `CCc1c(OC)cccc1C(=O)NN(C(=O)c1cccc(OC)c1)C(C)(C)C` [Ligand 1], the “Kc log(1/EC50)” value turned out to be 7.36. In addition, the Kd (Table 2) is 39.5 nM. In addition, the Kd (Table 3) came out at 40 nM.
Regarding `CCOc1cccc(C(=O)NN(C(=O)c2cc(C)cc(C)c2)C(C)(C)C)c1CC` [Ligand 12], the “Kc log(1/EC50)” value came out at 8.10. The Kd (Table 2) turned out to be 5.3 nM. Besides, where the note is “Table 3”, the Kd came out at 5 nM.
As for `CC(C)CC[C@@H](O)[C@](C)(O)[C@H]1CC[C@@]2(O)C3=CC(=O)[C@@H]4C[C@@H](O)[C@@H](O)C[C@]4(C)[C@H]3CC[C@]12C` [CE-4, ponasterone A, reference compound], the Kd reads like this: (Table 2) 0.7 nM; (Table 3) 0.7 nM.
